According to PMC4303209, “A novel phosphatidylinositol 3-kinase (PI3K) inhibitor directs a potent FOXO-dependent, p53-independent cell cycle arrest phenotype characterized by the differential induction of a subset of FOXO-regulated genes” (Breast Cancer Research : BCR, 2014):

Tested on: MCF-7 breast cancer cells
Assay: Microarray gene expression analysis (Agilent whole human genome 4 x 44K; compound vs DMSO, LIMMA log2 fold change)
Type: cell-based
Details: cell cycle genes

Oc1cccc(-c2nc(N3CCOCC3)c3oc4ncccc4c3n2)c1 [PI-103]
MLF1 log2FC (Gene 4291): 0.58 | MLH1 log2FC (Gene 4292): 0.34 | MAP3K11 log2FC (Gene 4296): -0.58 | MNAT1 log2FC (Gene 4331): 0.59 | MNT log2FC (Gene 4335): 1.54 | MOS log2FC (Gene 4342): -0.08 | MRE11A log2FC (Gene 4361): 0.27 | MSH2 log2FC (Gene 4436): 0.79 | MSH3 log2FC (Gene 4437): 0.54 | MSH4 log2FC (Gene 4438): -0.0458 | MSX1 log2FC (Gene 4487): -0.24 | MSX2 log2FC (Gene 4488): 0.05 | MUC1 log2FC (Gene 4582): -0.28 | TRIM37 log2FC (Gene 4591): 0.67 | MX2 log2FC (Gene 4600): -0.08 | MYB log2FC (Gene 4602): 0.51 | MYBL2 log2FC (Gene 4605): -0.39 | MYC log2FC (Gene 4609): 0.42 | GADD45B log2FC (Gene 4616): 0.86 | MYH9 log2FC (Gene 4627): -0.23 | MYH10 log2FC (Gene 4628): -0.0425 | PPP1R12A log2FC (Gene 4659): 0.42 | PPP1R12B log2FC (Gene 4660): 0.33 | NUBP1 log2FC (Gene 4682): -0.22 | NBN log2FC (Gene 4683): 0.62 | NEDD9 log2FC (Gene 4739): 0.0368 | NEK1 log2FC (Gene 4750): 0.57 | NEK2 log2FC (Gene 4751): 1.00 | NEUROD1 log2FC (Gene 4760): 0.04 | NGFR log2FC (Gene 4804): -0.07 | NOTCH2 log2FC (Gene 4853): 0.27 | NPAT log2FC (Gene 4863): 0.48 | NPM1 log2FC (Gene 4869): 0.28 | NUP88 log2FC (Gene 4927): 0.08 | ODF2 log2FC (Gene 4957): -0.13 | OSM log2FC (Gene 5008): -0.00804 | OVOL1 log2FC (Gene 5017): -0.06 | PAFAH1B1 log2FC (Gene 5048): 0.72 | PAK1 log2FC (Gene 5058): 0.07 | PAK3 log2FC (Gene 5063): 0.09 | PCM1 log2FC (Gene 5108): 0.63 | PCNT log2FC (Gene 5116): 0.45 | PDGFB log2FC (Gene 5155): -0.24 | PDGFRB log2FC (Gene 5159): 0.0243 | PGGT1B log2FC (Gene 5229): -0.28 | ABCB1 log2FC (Gene 5243): -0.02 | PIK3C3 log2FC (Gene 5289): 1.00 | PIM1 log2FC (Gene 5292): 1.29 | PIN1 log2FC (Gene 5300): -0.0472 | PKD1 log2FC (Gene 5310): 0.37 | PKD2 log2FC (Gene 5311): 0.13 | PKHD1 log2FC (Gene 5314): -0.09 | PLAGL1 log2FC (Gene 5325): 0.32 | PML log2FC (Gene 5371): -0.41 | PMS1 log2FC (Gene 5378): 0.55 | PMS2 log2FC (Gene 5395): 0.12 | POLD1 log2FC (Gene 5424): 0.33 | POLE log2FC (Gene 5426): -0.10 | PPAT log2FC (Gene 5471): 0.07 | PPM1A log2FC (Gene 5494): 0.27 | PPP1CB log2FC (Gene 5500): 0.81 | PPP1CC log2FC (Gene 5501): 0.33 | PPP2R1A log2FC (Gene 5518): 0.06 | PPP2R2A log2FC (Gene 5520): -0.06 | PPP2R4 log2FC (Gene 5524): -0.32 | PPP2R5C log2FC (Gene 5527): 0.78 | PPP3CA log2FC (Gene 5530): 0.45 | PPP5C log2FC (Gene 5536): -0.24 | PPP6C log2FC (Gene 5537): -0.35 | PRCC log2FC (Gene 5546): -0.66 | PRIM1 log2FC (Gene 5557): 0.46 | PRKAA1 log2FC (Gene 5562): 0.30 | PRKAA2 log2FC (Gene 5563): 0.07 | PRKAB1 log2FC (Gene 5564): 0.25 | PRKAB2 log2FC (Gene 5565): 0.81 | PRKACA log2FC (Gene 5566): -0.35 | PKIA log2FC (Gene 5569): -0.29 | PRKAG1 log2FC (Gene 5571): 0.09 | PRKAR1A log2FC (Gene 5573): 0.45 | PRKAR2B log2FC (Gene 5577): 0.43 | PRKCA log2FC (Gene 5578): -0.16 | PRKCD log2FC (Gene 5580): 0.12 | PRKCE log2FC (Gene 5581): -0.00329 | PKN2 log2FC (Gene 5586): 0.51 | MAPK1 log2FC (Gene 5594): 0.0165 | MAPK3 log2FC (Gene 5595): -0.12 | MAPK13 log2FC (Gene 5603): -0.17 | MAP2K1 log2FC (Gene 5604): -0.23 | MAP2K6 log2FC (Gene 5608): 0.36 | PROX1 log2FC (Gene 5629): -0.08 | KLK10 log2FC (Gene 5655): -0.42 | PSMA1 log2FC (Gene 5682): -0.03 | PSMA4 log2FC (Gene 5685): 0.47 | PSMA6 log2FC (Gene 5687): 0.07 | PSMB1 log2FC (Gene 5689): 0.00908 | PSMB2 log2FC (Gene 5690): -0.43 | PSMB3 log2FC (Gene 5691): 0.0534 | PSMB5 log2FC (Gene 5693): -0.22 | PSMB6 log2FC (Gene 5694): -0.08 | PSMB8 log2FC (Gene 5696): -0.00568 | PSMC1 log2FC (Gene 5700): -0.00867 | PSMC2 log2FC (Gene 5701): 0.28 | PSMC5 log2FC (Gene 5705): -0.31 | PSMC6 log2FC (Gene 5706): 0.52 | PSMD2 log2FC (Gene 5708): 0.00374 | PSMD3 log2FC (Gene 5709): -0.0745 | PSMD4 log2FC (Gene 5710): -0.0364 | PSMD5 log2FC (Gene 5711): 0.19 | PSMD7 log2FC (Gene 5713): 0.00364 | PSMD9 log2FC (Gene 5715): -0.40 | PSMD12 log2FC (Gene 5718): -0.77 | PSMD13 log2FC (Gene 5719): -0.17 | PSME2 log2FC (Gene 5721): 0.04 | PTEN log2FC (Gene 5728): 0.96 | PTGS2 log2FC (Gene 5743): -0.0533 | PTPN3 log2FC (Gene 5774): -0.31 | PTPN6 log2FC (Gene 5777): 0.26 | PTPRC log2FC (Gene 5788): -0.0261 | PTPRK log2FC (Gene 5796): 0.72 | RAD1 log2FC (Gene 5810): -0.29 | RAD9A log2FC (Gene 5883): 0.68 | RAD17 log2FC (Gene 5884): 1.15 | RAD21 log2FC (Gene 5885): 0.83 | RAD51 log2FC (Gene 5888): -0.29 | RAD52 log2FC (Gene 5893): 0.14 | RAN log2FC (Gene 5901): -0.14 | RANBP1 log2FC (Gene 5902): -0.10 | RANBP2 log2FC (Gene 5903): 0.42 | RARA log2FC (Gene 5914): -0.31 | RASA1 log2FC (Gene 5921): 0.47 | RB1 log2FC (Gene 5925): 0.67 | RBL2 log2FC (Gene 5934): 0.41 | RFC1 log2FC (Gene 5981): 1.04 | RFC2 log2FC (Gene 5982): -0.10 | RFC5 log2FC (Gene 5985): 0.15 | RGS2 log2FC (Gene 5997): -2.43 | RHEB log2FC (Gene 6009): 0.40 | RNF2 log2FC (Gene 6045): -0.11 | RNF4 log2FC (Gene 6047): -0.48 | RPA3 log2FC (Gene 6119): 0.23 | RPS6KA2 log2FC (Gene 6196): 0.19 | RPS6KA3 log2FC (Gene 6197): 0.27 | RPS15A log2FC (Gene 6210): 0.48 | RPS27 log2FC (Gene 6232): 0.35 | RPS27A log2FC (Gene 6233): 0.45 | RRM1 log2FC (Gene 6240): 0.36 | RRM2 log2FC (Gene 6241): -0.81 | SETMAR log2FC (Gene 6419): -0.16 | SIAH2 log2FC (Gene 6478): -0.48 | SKP2 log2FC (Gene 6502): -1.28 | SMARCA4 log2FC (Gene 6597): -0.39 | SOX2 log2FC (Gene 6657): 0.23 | SOX9 log2FC (Gene 6662): -2.01 | SPAST log2FC (Gene 6683): 0.37 | SPTBN1 log2FC (Gene 6711): 0.11 | SRPK2 log2FC (Gene 6733): 0.78 | TRIM21 log2FC (Gene 6737): 0.02
